Read-outs that look alike come from different tables or passages of the source.
How the values were obtained:
[1] = test system: panel of 60 human cancer cell lines; assay: Screen against a panel of 60 human tumor cell lines (single dose and five dose), panel and sub-panel statements; assay type: cell-based

C=C1C(=O)O[C@H]2[C@H]1CC/C(COC(=O)c1cc3ccccc3[nH]1)=C\CC[C@@]1(C)O[C@@H]21 [BS-1-28]
CC50 (HS 57BT): > 100000 nM
Percent Growth (HS 57BT; HS 57BT, Log10 Concentration −4.0): −20%
Percent Growth (HS 57BT; HS 57BT, Log10 Concentration −5.0): −5%
Percent Growth (HS 57BT; HS 57BT, Log10 Concentration −6.0): 78%
Percent Growth (HS 57BT; HS 57BT, Log10 Concentration −7.0): 84%
Percent Growth (HS 57BT; HS 57BT, Log10 Concentration −8.0): 47%
TGI (HS 57BT; HS 57BT, NCI five dose): 8.71E−6
CC50 (LOX IMVI): 732 nM
Percent Growth (LOX IMVI; LOX IMVI, Log10 Concentration −4.0): −81%
Percent Growth (LOX IMVI; LOX IMVI, Log10 Concentration −5.0): −88%
Percent Growth (LOX IMVI; LOX IMVI, Log10 Concentration −6.0): −72%
Percent Growth (LOX IMVI; LOX IMVI, Log10 Concentration −7.0): 93%
Percent Growth (LOX IMVI; LOX IMVI, Log10 Concentration −8.0): 93%
GI50 (LOX IMVI; LOX IMVI, NCI five dose): 182 nM
TGI (LOX IMVI; LOX IMVI, NCI five dose): 3.65E−7
CC50 (NCI-H226): 7010 nM
Percent Growth (NCI-H226; NCI-H226, Log10 Concentration −4.0): −71%
Percent Growth (NCI-H226; NCI-H226, Log10 Concentration −5.0): −73%
Percent Growth (NCI-H226; NCI-H226, Log10 Concentration −6.0): 74%
Percent Growth (NCI-H226; NCI-H226, Log10 Concentration −7.0): 88%
Percent Growth (NCI-H226; NCI-H226, Log10 Concentration −8.0): 92%
GI50 (NCI-H226; NCI-H226, NCI five dose): 1470 nM
TGI (NCI-H226; NCI-H226, NCI five dose): 3.21E−6
Growth inhibition, five dose screening ([1]; CCRF-CEM, HL-60 (TB), K-562, RPMI-8226, HOP-92, NCI-H522, HCT-116, HCT-15, SW-620, LOX IMVI, M14, MDA-MB-435, 786-0, ACHN, UO-31): potent nanomolar growth inhibition
Anticancer activity, five dose screening ([1]; melanoma, leukemia, colon, CNS, breast, ovarian, non-small cell lung, renal, and prostate cancers): remarkable anticancer activity
Outcome of initial single dose screening ([1]; single concentration 10^−5 M, more than 60% growth inhibition in at least eight cell lines of the panel): selected for five dose screening
CC50 (MDA-MB-435): 5850 nM
Percent Growth (MDA-MB-435; MDA-MB-435, Log10 Concentration −4.0): −96%
Percent Growth (MDA-MB-435; MDA-MB-435, Log10 Concentration −5.0): −76%
Percent Growth (MDA-MB-435; MDA-MB-435, Log10 Concentration −6.0): 44%
Percent Growth (MDA-MB-435; MDA-MB-435, Log10 Concentration −7.0): 98%
Percent Growth (MDA-MB-435; MDA-MB-435, Log10 Concentration −8.0): 97%
GI50 (MDA-MB-435; MDA-MB-435, NCI five dose): 763 nM
TGI (MDA-MB-435; MDA-MB-435, NCI five dose): 2.28E−6
CC50 (HCC-2998): 8770 nM
Percent Growth (HCC-2998; HCC-2998, Log10 Concentration −4.0): −84%
Percent Growth (HCC-2998; HCC-2998, Log10 Concentration −5.0): −59%
Percent Growth (HCC-2998; HCC-2998, Log10 Concentration −6.0): 104%
Percent Growth (HCC-2998; HCC-2998, Log10 Concentration −7.0): 104%
Percent Growth (HCC-2998; HCC-2998, Log10 Concentration −8.0): 103%
GI50 (HCC-2998; HCC-2998, NCI five dose): 2140 nM
TGI (HCC-2998; HCC-2998, NCI five dose): 4.33E−6
CC50 (TK-10): 5390 nM
Percent Growth (TK-10; TK-10, Log10 Concentration −4.0): −98%
Percent Growth (TK-10; TK-10, Log10 Concentration −5.0): −96%
Percent Growth (TK-10; TK-10, Log10 Concentration −6.0): 74%
Percent Growth (TK-10; TK-10, Log10 Concentration −7.0): 117%
Percent Growth (TK-10; TK-10, Log10 Concentration −8.0): 95%
GI50 (TK-10; TK-10, NCI five dose): 1390 nM
TGI (TK-10; TK-10, NCI five dose): 2.73E−6
CC50 (ACHN): 4220 nM
Percent Growth (ACHN; ACHN, Log10 Concentration −4.0): −95%
Percent Growth (ACHN; ACHN, Log10 Concentration −5.0): −91%
Percent Growth (ACHN; ACHN, Log10 Concentration −6.0): 19%
Percent Growth (ACHN; ACHN, Log10 Concentration −7.0): 55%
Percent Growth (ACHN; ACHN, Log10 Concentration −8.0): 76%
GI50 (ACHN; ACHN, NCI five dose): 342 nM
TGI (ACHN; ACHN, NCI five dose): 1.49E−6
CC50 (OVCAR-4): 8430 nM
Percent Growth (OVCAR-4; OVCAR-4, Log10 Concentration −4.0): −84%
Percent Growth (OVCAR-4; OVCAR-4, Log10 Concentration −5.0): −58%
Percent Growth (OVCAR-4; OVCAR-4, Log10 Concentration −6.0): 48%
Percent Growth (OVCAR-4; OVCAR-4, Log10 Concentration −7.0): 88%
Percent Growth (OVCAR-4; OVCAR-4, Log10 Concentration −8.0): 4%
TGI (OVCAR-4; OVCAR-4, NCI five dose): 2.85E−6
CC50 (A498): 5630 nM
Percent Growth (A498; A498, Log10 Concentration −4.0): −95%
Percent Growth (A498; A498, Log10 Concentration −5.0): −99%
Percent Growth (A498; A498, Log10 Concentration −6.0): 97%
Percent Growth (A498; A498, Log10 Concentration −7.0): 102%
Percent Growth (A498; A498, Log10 Concentration −8.0): 110%
GI50 (A498; A498, NCI five dose): 1740 nM
TGI (A498; A498, NCI five dose): 3.43E−6
CC50 (786-0): 9010 nM
Percent Growth (786-0; 786-0, Log10 Concentration −4.0): −94%
Percent Growth (786-0; 786-0, Log10 Concentration −5.0): −90%
Percent Growth (786-0; 786-0, Log10 Concentration −6.0): 11%
Percent Growth (786-0; 786-0, Log10 Concentration −7.0): 102%
Percent Growth (786-0; 786-0, Log10 Concentration −8.0): 96%
GI50 (786-0; 786-0, NCI five dose): 371 nM
TGI (786-0; 786-0, NCI five dose): 1.28E−6
CC50 (OVCAR-5): 8220 nM
Percent Growth (OVCAR-5; OVCAR-5, Log10 Concentration −4.0): −88%
Percent Growth (OVCAR-5; OVCAR-5, Log10 Concentration −5.0): −59%
Percent Growth (OVCAR-5; OVCAR-5, Log10 Concentration −6.0): 57%
Percent Growth (OVCAR-5; OVCAR-5, Log10 Concentration −7.0): 96%
Percent Growth (OVCAR-5; OVCAR-5, Log10 Concentration −8.0): 85%
GI50 (OVCAR-5; OVCAR-5, NCI five dose): 1140 nM
TGI (OVCAR-5; OVCAR-5, NCI five dose): 3.07E−6
CC50 (KM12): 15600 nM
Percent Growth (KM12; KM12, Log10 Concentration −4.0): −82%
Percent Growth (KM12; KM12, Log10 Concentration −5.0): −42%
Percent Growth (KM12; KM12, Log10 Concentration −6.0): 92%
Percent Growth (KM12; KM12, Log10 Concentration −7.0): 96%
Percent Growth (KM12; KM12, Log10 Concentration −8.0): 93%
GI50 (KM12; KM12, NCI five dose): 2050 nM
TGI (KM12; KM12, NCI five dose): 4.84E−6
CC50 (HCT-116): 841 nM
Percent Growth (HCT-116; HCT-116, Log10 Concentration −4.0): −91%
Percent Growth (HCT-116; HCT-116, Log10 Concentration −5.0): −94%
Percent Growth (HCT-116; HCT-116, Log10 Concentration −6.0): −62%
Percent Growth (HCT-116; HCT-116, Log10 Concentration −7.0): 96%
Percent Growth (HCT-116; HCT-116, Log10 Concentration −8.0): 97%
GI50 (HCT-116; HCT-116, NCI five dose): 196 nM
TGI (HCT-116; HCT-116, NCI five dose): 4.06E−7
CC50 (MCF7): 6690 nM
Percent Growth (MCF7; MCF7, Log10 Concentration −4.0): −56%
Percent Growth (MCF7; MCF7, Log10 Concentration −5.0): −63%
Percent Growth (MCF7; MCF7, Log10 Concentration −6.0): 11%
Percent Growth (MCF7; MCF7, Log10 Concentration −7.0): 88%
Percent Growth (MCF7; MCF7, Log10 Concentration −8.0): 63%
GI50 (MCF7; MCF7, NCI five dose): 302 nM
TGI (MCF7; MCF7, NCI five dose): 1.39E−6
CC50 (HT29): 5970 nM
Percent Growth (HT29; HT29, Log10 Concentration −4.0): −80%
Percent Growth (HT29; HT29, Log10 Concentration −5.0): −57%
Percent Growth (HT29; HT29, Log10 Concentration −6.0): −25%
Percent Growth (HT29; HT29, Log10 Concentration −7.0): 109%
Percent Growth (HT29; HT29, Log10 Concentration −8.0): 103%
GI50 (HT29; HT29, NCI five dose): 276 nM
TGI (HT29; HT29, NCI five dose): 6.51E−7
CC50 (BT-549): 2640 nM
Percent Growth (BT-549; BT-549, Log10 Concentration −4.0): −99%
Percent Growth (BT-549; BT-549, Log10 Concentration −5.0): −88%
Percent Growth (BT-549; BT-549, Log10 Concentration −6.0): −22%
Percent Growth (BT-549; BT-549, Log10 Concentration −7.0): 14%
Percent Growth (BT-549; BT-549, Log10 Concentration −8.0): −30%
GI50 (BT-549; BT-549, NCI five dose): < 10 nM
GI50 (BT-549; BT-549 breast cancer cell line): < 10 nM
Percent Growth (HL-60(TB); Log10 Concentration −4.0): −57%
Percent Growth (HL-60(TB); Log10 Concentration −5.0): −17%
Percent Growth (HL-60(TB); Log10 Concentration −6.0): 28%
Percent Growth (HL-60(TB); Log10 Concentration −7.0): 112%
Percent Growth (HL-60(TB); Log10 Concentration −8.0): 114%
GI50 (HL-60(TB); NCI five dose): 546 nM
TGI (HL-60(TB); NCI five dose): 4.15E−6
CC50 (HL-60(TB); read-out: LC50, NCI five dose): 65800 nM

From patent publication US9920063B2, “Melampomagnolide B derivatives” (Board of Trustees of the University of Arkansas, priority 2013, dated 2018)
